Results: US12083268B2, “Delivery device and formulation” (Ockham Biotech Limited, priority 2016, dated 2024)
Several values for one entry are separate records, joined by “and”; a condition that tells them apart may be missing. Equal entries are not always repeated. One block for each molecule: values may come before it.

Key:
[1] = Solubility of dexamethasone in NaCl solution with and without heparin; assay type: physicochemical
[2] = Anti-coagulant activity after nebulisation from PARI eFlow
Text: In an additional experiment, it was also observed that the anti-coagulant activity of the unfractionated heparin was retained after nebulisation from the PARI eFlow® device.

[3] = Particle size distribution of heparin solutions aerosolised with Aeroneb Go (HELOS KR particle sizer); assay type: physicochemical
Description: The particle size distribution of heparin solutions was measured after aerosolisation of the heparin solutions using the Aeroneb® Go nebuliser. Particle size measurements were made using the HELOS KR particle sizer device, INHALER module, and WINDOX 5.0 software from SympatecGmbH (Clausthal-Zellerfeld, Germany). The total volume of solution in the reservoir of the nebuliser was 6 mL: 1.5 mL heparin (Wokhardt, 25,000 IU/mL) with 4.5 mL 0.9% aqueous NaCl (final concentration of heparin=6250 IU/mL or 31.25 mg/mL; final concentration of NaCl=[…]). The viscosity of the solution was 1.7 mPa·s. The nebulisation time was 14 min (reservoir empty); particle size measurements were divided into 1 min intervals. The particle distribution is seen to be bimodal. The X50 is […] (mean±standard deviation), where 50% of the total number of the particles is in particles less than this size. […] Optical concentration (droplets in laser pathway) was used as an indication of nebulisation efficiency; this nebulisation efficiency was determined to be 76.91%±4.25%.
(§1) Aqueous solutions of unfractionated heparin as its sodium salt containing various concentrations of an added inorganic salt were also aerosolised using the Aeroneb® Go. Particle size measurements were made using the HELOS KR particle sizer device, INHALER module, and WINDOX 5.0 software from SympatecGmbH (Clausthal-Zellerfeld, Germany). The heparin sodium salt was obtained from pig intestinal mucosa (Calbiochem, molecular weight 12-15 kDa, 192 U/mg). The particle size distributions are shown in FIGS. 2-7 and the important parameters, quoted as mean values ±standard deviations, are summarised in Table 4 below.
A 40 mg/mL aqueous solution of heparin containing 140 mM NaCl was aerosolised using the Aeroneb® Go nebuliser in the absence and presence of salbutamol (a bronchodilator) and dexamethasone (a corticosteroid). Particle size measurements were made using the HELOS KR particle sizer device, INHALER module, and WINDOX 5.0 software from SympatecGmbH (Clausthal-Zellerfeld, Germany).

[4] = Viscosity of heparin salt solutions (BS/U-tube viscometer); assay type: physicochemical; conditions: 40 mg/mL heparin
Text: as §1

[5] = Physicochemical characterisation of heparin solutions in water
Description: Tests for viscosity, surface tension and osmolality were carried out in triplicate. For pH and density single measurements were performed.

[6] = Viscosity of heparin salt solutions (BS/U-tube viscometer); assay type: physicochemical
[7] = Laser diffraction of aerosol from heparin solutions nebulised with PARI eFlow; assay type: physicochemical
Description: There is a moderate increase from 1.25±0.01 to 1.99±0.02 mPa·s between 6 and 30 mg/mL and a strong increase to 8.9±0.08 mPa·s when the concentration is further increased to 150 mg/mL. The surface tension (nearly equal to that of water) remains constant between 6 and 30 mg/mL and increases only slightly (from 72.41±0.02 to 73.78±0.05 mN/m) between 30 and 150 mg/mL. As expected the osmolality increases with increasing concentration, going from 0.014±0.001 to 0.293±0.001 osmol/kg over the investigated concentration range. […] All formulations show a pH (between 5.97 and 6.50) which would be appropriate for inhalation (the allowed range according to the European Pharmacopoeia is pH 3.0-8.5). The heparin solutions were nebulised using a PARI eFlow® device configured with Head class 40, which typically results in droplet sizes from 4.0-4.9 μm when using dilute aqueous formulations. The properties of the resultant aerosol particles were measured using laser diffraction, and are compared with the results obtained for isotonic saline measured using the same nebuliser configuration in Table 2.

[8] = in water; reference [7]; cited from earlier work
[9] = HPLC of unfractionated heparin before and after nebulisation with PARI eFlow; assay type: physicochemical; conditions: 0.25 mg/mL (50 U/mL) in water
Description: A solution of unfractionated heparin (diluted to 50 U/mL, i.e. 0.25 mg/mL, in ultra high quality water) was analysed by high performance liquid chromatography. HPLC analysis was performed using a […] ion-paring C8 column (Hichrom, Reading, UK), a Rheodyne 7725 syringe loading sample injector fitted with a 20 μL loop (Rheodyne, Cotati, CA, USA), a LKB2150 dual piston pump (LK Bromma, Swedon), a HP 1050CVW detector (Agilent, UK), a HP 3396A integrator (Agilent, UK) and a Rheodyne 25 μL capacity syringe was used to load a 20 μL sample into the injection port. HPLC conditions consisted of an ultraviolet wavelength selected at 232 nm. The flow rate was adjusted to 0.50 mL/min and a pressure of 50 bar was recorded. A mobile phase composed of 30% acetonitrile and 70% aqueous solution comprising 15 mM tetrabutylammonium hydroxide and 50 mM ammonium acetate in HPLC grade water, adjusted to pH 7 with acetic acid, was used. The resulting HPLC trace is shown as the left-hand trace in FIG. 11.
An identical sample of unfractionated heparin was nebulised using the PARI eFlow® device, and recollected. […] The resulting HPLC trace is shown as the right-hand trace in FIG. 11.

[10] = 31.25 mg/mL heparin, 154 mM NaCl, Aeroneb Go
[11] = 40 mg/mL heparin, 112 mM NaCl, 56 mM MgCl2, Aeroneb Go
[12] = 40 mg/mL heparin, 140 mM NaCl, Aeroneb Go
[13] = 40 mg/mL heparin, 168 mM NaCl, Aeroneb Go
[14] = 40 mg/mL heparin, 196 mM NaCl, Aeroneb Go
[15] = 40 mg/mL heparin, 210 mM NaCl, Aeroneb Go
[16] = 40 mg/mL heparin, 224 mM NaCl, Aeroneb Go
[17] = 40 mg/mL unfractionated heparin, 140 mM NaCl, 0.75 mg/mL dexamethasone, Aeroneb Go
[18] = 40 mg/mL unfractionated heparin, 140 mM NaCl, 0.83 mg/mL salbutamol, Aeroneb Go
[19] = 40 mg/mL unfractionated heparin, 140 mM NaCl, no second agent, Aeroneb Go

solubility (in words) ([1]; 0.25 mg/mL in 140 mM NaCl alone): not soluble
solubility (in words) ([1]; in 140 mM NaCl containing 40 mg/mL heparin): soluble
Molecule: C[C@@H]1C[C@H]2[C@@H]3CCC4=CC(=O)C=C[C@]4(C)[C@@]3(F)[C@@H](O)C[C@]2(C)[C@@]1(O)C(=O)CO [dexamethasone]

X50 [3, 10]: 3.45 ± 0.025 µm
X90 [3, 10]: less than 8.5 m
particles within the respirable range of 1-5 μm [3, 10]: 57.87%
Particles in 1-5 μm range [3, 11]: 58.46% and 58.46 ± 0.30%
VMD (volume median diameter) [3, 11]: 4.31 ± 0.05 μm
X50 [3, 11]: 3.49 ± 0.056 μm
Particles in 1-5 μm range [3, 12]: 50.76% and 50.76 ± 0.63%
VMD (volume median diameter) [3, 12]: 4.80 ± 0.06 μm
X50 [3, 12]: 4.095 ± 0.044 μm
X50 ([3]; 40 mg/mL heparin, 140 mM NaCl, no second agent, Aeroneb Go (as restated in conclusions)): 3.98±0.03 μm
VMD ([3]; 40 mg/mL heparin, 140 mM NaCl, with salbutamol, Aeroneb Go (as restated in conclusions)): 4.47 μm
Particles in 1-5 μm range [3, 13]: 56.65% and 56.65 ± 0.47%
VMD (volume median diameter) [3, 13]: 4.41 ± 0.025 μm
X50 [3, 13]: 3.543 ± 0.049 μm
Particles in 1-5 μm range [3, 14]: 48.62% and 48.62 ± 0.38%
VMD (volume median diameter) [3, 14]: 4.68 ± 0.02 μm
X50 [3, 14]: 3.978 ± 0.022 μm
Particles in 1-5 μm range [3, 15]: 55% and 55 ± 0.24%
VMD (volume median diameter) [3, 15]: 4.55 ± 0.023 μm
X50 [3, 15]: 3.812 ± 0.027 μm
Particles in 1-5 μm range [3, 16]: 57.02% and 57.02 ± 0.28%
VMD (volume median diameter) [3, 16]: 4.37 ± 0.032 μm
X50 [3, 16]: 3.51 ± 0.03 μm
VMD [3, 17]: 4.61 ± 0.058 µm
X50 [3, 17]: 3.906±0.048 μm
particles within the respirable range of 1-5 m [3, 17]: 49.954%
VMD [3, 18]: 4.47 ± 0.054 µm
X50 [3, 18]: 3.546±0.045 μm
particles within the respirable range of 1-5 m [3, 18]: 55.154%
VMD [3, 19]: 4.64±0.033 μm
X50 [3, 19]: 3.98 ± 0.03 µm
particles within the respirable range of 1-5 μm [3, 19]: 48.21%
Viscosity ([4]; 0 mM NaCl, 0 mM MgCl2): 2.5 mPa · s
Viscosity ([4]; 112 mM NaCl, 56 mM MgCl2): 2 mPa · s and 2.0 mPa · s
Viscosity ([4]; 140 mM NaCl): 2.22 mPa · s
Viscosity ([4]; 168 mM NaCl): 2.25 mPa · s
Viscosity ([4]; 196 mM NaCl): 2.2 mPa · s
Viscosity ([4]; 210 mM NaCl): 2.2 mPa · s
Viscosity ([4]; 224 mM NaCl): 2 mPa · s and 2.0 mPa · s
Viscosity ([5]; 6 mg/mL heparin in water): 1.25±0.01 mPa · s and 1.25 mPa · s
density ([5]; 6 mg/mL heparin in water): 1.00 g/mL
osmolality ([5]; 6 mg/mL heparin in water): 0.014±0.001 osmol/kg and 0.014 osmol/kg
pH ([5]; 6 mg/mL heparin in water): 6.50
surface tension ([5]; 6 mg/mL heparin in water): 72.58 mN/m
Viscosity ([5]; 30 mg/mL heparin in water): 1.99±0.02 mPa · s and 1.99 mPa · s
density ([5]; 30 mg/mL heparin in water): 1.01 g/mL
osmolality ([5]; 30 mg/mL heparin in water): 0.056 osmol/kg
pH ([5]; 30 mg/mL heparin in water): 6.01
surface tension ([5]; 30 mg/mL heparin in water): 72.41±0.02 mN/m and 72.41 mN/m
Viscosity ([5]; 150 mg/mL heparin in water): 8.9±0.08 mPa · s and 8.90 mPa · s
density ([5]; 150 mg/mL heparin in water): 1.07 g/mL
osmolality ([5]; 150 mg/mL heparin in water): 0.293±0.001 osmol/kg and 0.293 osmol/kg
pH ([5]; 150 mg/mL heparin in water): 5.97
surface tension ([5]; 150 mg/mL heparin in water): 73.78±0.05 mN/m and 73.78 mN/m
Viscosity ([6]; 31.25 mg/mL (6250 IU/mL) heparin, 154 mM NaCl): 1.7 mPa·s
Viscosity ([6]; 40 mg/mL unfractionated heparin, 140 mM NaCl (Example 3)): 2.2 mPa·s
MMD (median mass diameter) ([7]; 6 mg/mL heparin): 4.6 μm
RF (respirable fraction) [% <5 μm] ([7]; 6 mg/mL heparin): 57.9%
MMD (median mass diameter) ([7]; 30 mg/mL heparin): 4.4 μm
RF (respirable fraction) [% <5 μm] ([7]; 30 mg/mL heparin): 63.0%
structural integrity / degradation on nebulisation (HPLC traces before vs after) [9]: does not lead to degradation
Molecule: heparin
anti-coagulant activity after nebulisation [2]: retained
intrinsic viscosity [8]: 80.6 mL/g
